In patent publication US7514432B2, “Compounds and methods of treating cell proliferative diseases, retinopathies and arthritis” (Exonhit Therapeutics SA, priority 2003, dated 2009):
Like-named read-outs stand apart in the source and are kept apart here.

Columns and labels:
HCT116 = test: Cell viability assay (MTT), HCT116; format: cell-based, human; details: 1% DMSO
In short: (§1)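 Cells seeded 24 h before treatment with 0–200 μM compound (11 concentrations, 1% DMSO final) in 10% or 0.5% FBS medium; exposure 16 h, 3 or 6 days, fed every 3 days in 6-day runs. MTT 0.5 mg/ml read at 550 nm; IC50 from dose-response curves, mean±SEM.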

HCT116 cells = test: Anchorage-independent cell growth assay in soft agar; format: cell-based, human; details: 7 days; for IC50: Homo sapiens, HCT-116, 168 h, HCT116, 0.3% agar
Experimental: FIG. 3: Anchorage-independent growth assay in soft agar. 5 10^3 cells were seeded in 24-well plates in 0.3% agar-containing medium supplemented with the designated amount of compounds. After 7 days of incubation at 37° C., pictures of each well were taken and analyzed using the ImageJ image analysis software. In particular, clone size and number were calculated. The data were analyzed using GraphPad Prism, and IC50 was calculated. […] (A) Typical dose-response curves obtained for clone size and number. (B) Bar graph displaying the IC50s calculated for each compound.
In order to evaluate the effect of one compound on the capacity of tumour cells to grow without anchorage, HCT116 cells were seeded in soft agar. In contrast to microplate assays which average the drug's effects over an entire cell population, clonogenic assays offer the possibility of distinguishing cytotoxic agents (i.e., decreased colony number) from cytostatic agents (i.e., decreased colony size without decreased colony number; Murphy M. J. et al., 1996). Briefly, 5 10^3 HCT116 cells were resuspended in 300 μl of complete medium containing 0.3% soft-agar (Difco) and different concentrations of compound (8 concentrations ranging from 0 to 30 μM). Cells were then poured on a solidified layer of medium containing 0.5% of soft agar plus the compound at the same concentration as in the upper layer. Cells were incubated for 7 days at 37° C. before pictures of each well were taken using a phase contrast microscope (Nikon) and a digital camera (Nikon Coolpix 990). Pictures were subsequently analyzed using free image analysis software from the NIH (ImageJ) allowing determination of clone size and number.
Data were analyzed using the GraphPad Prism software, and IC50 (dose leading to a 50% decrease of clone size or number) was calculated from dose-response curves.

HMEC1 = test: Cell viability assay (MTT), HMEC1; format: cell-based, Human; details: MTT, 10% FBS, 6-day treatment, 1% DMSO
In short: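 HMEC1 cells seeded 24 h before dosing, then exposed to 0–200 μM compound (11 concentrations) in medium with 10% FBS and 1% DMSO final, refed every 3 days. Viability read on day 6 by MTT (0.5 mg/ml, 1–5 h at 37 °C), absorbance 550 nm; IC50 from dose-response curves, mean±SEM of 1–8 experiments.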

NIH 3T3 = test: Cell viability assay (MTT), NIH 3T3; format: cell-based, mouse; details: Mus musculus, 10% FBS, 1% DMSO
In short: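 MTT viability in medium with 10% FBS and 1% DMSO, with cells seeded 24 h before treatment at 0–200 μM (11 concentrations). There were two formats: 6-day (3–15 10^3 cells, re-fed every 3 days) or 16-hour (5–10 10^4 cells). Absorbance was read at 550 nm, giving IC50 (50% cell death) as mean±SEM.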

MDA-MB-231 = test: Cell viability assay (MTT), MDA-MB-231; format: cell-based, human; details: Homo sapiens, 1% DMSO
In short: as §1

HepG2 = test: Cell viability assay (MTT), HepG2; format: cell-based; details: Homo sapiens, 10% FBS, 16-hours treatment, 1% DMSO
Experimental: (§2) Table 15: 16-hour cell viability assay (MTT) in the presence of 10% Fetal Bovine Serum and 1% DMSO, in HCT116, MDA-MB-231, NIH3T3, HepG2 and primary hepatocytes. 5 10^4 to 10 10^4 cells were seeded in 48-well plates in growth medium containing 10% FBS, with or without various concentrations of test compounds. Data were analyzed and IC50s were calculated from dose-reponse curves using GraphPad Prism. Results summarized in the tables are mean±SEM of 1 to 2 independent experiments.
(§3) In order to determine a compound's effect on cell viability, microculture tetrazolium assays (MTT) were performed as described by Carmichael et al. (1996) with modifications. Four human tumoral cell lines, namely HCT116 colon adenocarcinoma, H460 lung carcinoma, MCF-7 and MDA-MB-231 breast carcinoma cell lines, DLD1 colorectal adenocarcinoma, HeLa adenocarcinoma, HepG2 hepatocellular carcinoma. 3 immortalized but non tumorigenic cell lines, namely NIH3T3 mouse fibroblasts (American Type Culture Collection) and primary hepatocytes (Biopredic international), cultured according to their recommendations together with Human Microvasculature Endothelial Cell line HMEC1 (National Center for Infectious Diseases). Briefly, cells were seeded in 48-well plates 24 hours before drug addition. Cells were treated with 0 to 200 μM (11 concentrations) of compound solubilized in DMSO, adjusting the final concentration of DMSO to 1% in the well. 16 hours, and three or six days after treatment, 0.5 mg/ml MTT (Sigma) was added to the medium and cells were incubated for 1-5 hours at 37° C. before solubilization of formazan crystals in 100% DMSO. Absorbance was measured using a spectrophotometer at a wavelength of 550 nm. Data was analyzed using the GraphPad Prism software (GraphPad Software, Inc.), and IC50 (dose leading to 50% cell death) was calculated from the dose-response curves.

[1] = system: Salmonella typhimurium TA 98 and TA 100 strains; test: Screening Ames test; details: with and without S9 mix; 10 to 5000 μg per plate
Description: The objective of this study was to evaluate the potential of the test items to induce reverse mutation in Salmonella Typhimurium (TA 98 and TA 100 strains). The bacterial reverse mutation test is able to identify substances that cause point mutations, by substitution, addition or deletion of one or a few DNA base-pairs. Mutagenic substances can induce reversion in histidine deficient strains which are then able to grow and form colonies in a histidine-limited medium, while non-reverted cannot. This test is performed in the absence and presence of a rat liver metabolising system (S9 mix). Three known mutagens are used to check sensitivity of test system: sodium azide, 2-nitrofluorene and 2-anthramine.
The dose levels per plate were of 10 to 5000 μg. A preliminary toxicity test was performed followed by the mutagenecity test per se.

Primary Hepatocytes = test: Cell viability assay (MTT), primary hepatocytes; format: cell-based; details: Hepatocyte, 10% FBS, 16-hours treatment, 1% DMSO
Experimental: as §2, §3

HeLa = test: Cell viability assay (MTT), HeLa; format: cell-based; details: Homo sapiens, 72 h, 10% FBS, 3-day treatment, 1% DMSO
Experimental: (§4) Table 14: 3-day cell viability assay (MTT) in the presence of 10% Fetal Bovine Serum and 1% DMSO, in DLD1, HCT116, MDA-MB-231, MCF7 and HeLa cells. 7.5 10^3 to 1.5 10^4 cells were seeded in 48-well plates in growth medium containing 10% FBS, with or without various concentrations of test compounds. Data were analyzed and IC50s were calculated from dose-response curves using GraphPad Prism. Results summarized in the tables are mean±SEM of 1 to 7 independent experiments.
as §3

DLD1 = test: Cell viability assay (MTT), DLD1; format: cell-based; details: Homo sapiens, DLD-1, 72 h, 10% FBS, 3-day treatment, 1% DMSO
Experimental: as §4, §3

MCF7 = test: Cell viability assay (MTT), MCF7; format: cell-based; details: Homo sapiens, MCF7, 72 h, 10% FBS, 3-day treatment, 1% DMSO
Experimental: as §4, with “Table 12: 6-day” for “Table 14: 3-day”, “in HMEC1,” for “in DLD1,”, “and NIH3T3 cell lines. 3” for “and HeLa cells. 7.5”, “to 15 10^3” for “to 1.5 10^4”, “compounds. Cell cultures were fed every 3 days with the appropriate media. Cell viability was determined on day 6.” for “compounds.”, “to 8” for “to 7”
as §4, §3

[2] = Homo sapiens, HCT-116, 144 h, 0.5% FBS, 6-day treatment
[3] = Homo sapiens, HCT-116, 144 h, 10% FBS, 6-day treatment
[4] = MDA-MB-231, 144 h, 0.5% FBS, 6-day treatment, read-out: IC50 (μM), MDA-MB-231
[5] = MDA-MB-231, 144 h, 10% FBS, 6-day treatment, read-out: IC50 μM, MDA-MB-231

Row | IC50 (HCT116 cells) | IC50 (MDA-MB-231; [5]) | Structure (SMILES) | IC50 (HCT116; [2]) | IC50 (HCT116; [3]) | IC50 (HMEC1; Homo sapiens, HMEC-1, 144 h) | IC50 (NIH 3T3; NIH3T3, 144 h, 6-day treatment) | IC50 (MDA-MB-231; [4]) | also measured
1 | 5.8 ± 1 µM | 1.3 µM | NC(=O)c1nnn(Cc2cc(Cl)c(C(=O)c3ccc(Cl)cc3)c(Cl)c2)c1N [CAI, carboxyamidotriazole, reference compound] | 0.6 µM | 1 µM | 28.4 µM | 5.8 µM | 0.4 µM | IC50 (HCT116; Homo sapiens, HCT-116, 16 h, 10% FBS, 16-hours treatment): 44.1 µM; mode of action: clone size versus clone number (HCT116 cells; soft agar): preferentially affect clone size as compared to clone number; IC50 (NIH 3T3; NIH3T3, 16 h, 16-hours treatment): 95.9 µM; IC50 (MDA-MB-231; MDA-MB-231, 16 h, 10% FBS, 16-hours treatment, read-out: IC50 μM, MDA-MB-231): > 50 µM
2 | 5.4 ± 1.2 µM | 11.5 µM | O=c1cc(COC2CCCCO2)occ1OCCCCCSc1ccnc2cc(C(F)(F)F)ccc12 (stereo not shown) [EHT 9376, 2-(Tetrahydro-pyran-2-yloxymethyl)-5-[5-(7-trifluoromethyl-quinolin-4-ylsulfanyl)-pentyloxy]-4H-pyran-4-one] |  |  | < 10 µM | 8.1 µM |  | IC50 (HMEC1): 8.2 µM

Row | Structure (SMILES) | IC50 (HCT116 cells) | IC50 (MDA-MB-231; [5]) | IC50 (HCT116; [2]) | IC50 (HCT116; [3]) | IC50 (HMEC1; Homo sapiens, HMEC-1, 144 h) | IC50 (NIH 3T3; NIH3T3, 144 h, 6-day treatment) | IC50 (MDA-MB-231; [4]) | also measured
3 | O=c1cc(CN2CCOCC2)occ1OCc1cccc(CSc2ccnc3cc(C(F)(F)F)ccc23)c1 [EHT 2725, 5-((3-((7-(Trifluoromethyl)quinolin-4-ylthio)methyl)phenyl)methoxy)-2-(morpholinomethyl)-4H-pyran-4-one] |  | 9.3 µM | 5.4 µM | < 4 µM | 28.1 µM | 24.8 µM | 6.4 µM | IC50 (HCT116; 10% FBS, 6-day treatment): 2.7 µM; IC50 (HCT116; Homo sapiens, HCT-116, 72 h, 10% FBS, 3-day treatment): 9.9 µM; IC50 (HepG2): 45.2 µM; mutagenic activity [1]: did not show any mutagenic activity; IC50 (Primary Hepatocytes): > 50 µM; IC50 (HeLa): 20.9 µM; IC50 (DLD1): 12.2 µM; IC50 (MCF7): 7.3 µM; IC50 (MDA-MB-231; MDA-MB-231, 72 h, 10% FBS, 3-day treatment, read-out: IC50 μM, MDA-MB-231): 19.5 µM
